Experimental data taken from US20110201628A1, “HETEROCYCLIC JAK KINASE INHIBITORS” (priority 2008, published 2011).

target: T1, N-terminal GST-tagged, recombinant, human JAK2 (amino acids 831-1132) (Homo sapiens, UniProt O60674); test: JAK2 mobility shift assay on Caliper LC3000 (Method 2); type: biochemical; details: 0.3 nM JAK2 enzyme, 5 mM ATP, 1.5 μM SRCtide, 90 minutes room temperature
T1 construct: human JAK2 (amino acids 831-1132, PLAZA database pAZB0359); GST (N); host or cells: insect cells
T1 sequence (O60674 831-1132): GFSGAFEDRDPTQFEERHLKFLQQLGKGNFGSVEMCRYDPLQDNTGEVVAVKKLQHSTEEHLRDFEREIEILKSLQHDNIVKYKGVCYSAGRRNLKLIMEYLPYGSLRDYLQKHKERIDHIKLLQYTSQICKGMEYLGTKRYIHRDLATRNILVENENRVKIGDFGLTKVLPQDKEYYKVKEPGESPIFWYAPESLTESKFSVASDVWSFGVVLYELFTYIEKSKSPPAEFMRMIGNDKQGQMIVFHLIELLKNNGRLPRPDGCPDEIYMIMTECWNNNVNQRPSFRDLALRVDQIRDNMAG
Protocol: Janus kinase 2 (JAK2) activity was also determined by measuring the kinase's ability to phosphorylate a tyrosine residue within a peptide substrate using a mobility shift assay on a Caliper LC3000 reader (Caliper, Hopkinton, Mass.), which measures fluorescence of the phosphorylated and unphosphorylated substrate and calculates a ratiometric value to determine percent turnover.
To measure JAK2 kinase activity, an in-house purified enzyme was used. […] After incubation of the kinase with a FAM labeled SRCtide substrate, adenosine triphosphate (ATP), and MgCl2 for 90 minutes at room temperature, the kinase reaction was stopped by the addition of 36 mM ethylenediaminetetraacetic acid (EDTA). The reaction was performed in 384 well microtitre plates and the reaction products were detected using the Caliper LC3000 Reader.

Compound | IC50 [nM]
C[C@H](Nc1nc(Nc2cn(C)cn2)c2ccc(C(F)(F)F)nc2n1)c1ncc(F)cn1 [Example 32, N^2-[(1S)-1-(5-Fluoropyrimidin-2-yl)ethyl]-N^4-(1-methyl-1H-imidazol-4-yl)-7-(trifluoromethyl)pyrido[2,3-d]pyrimidine-2,4-diamine] | 35
COc1cnc(C(C)Nc2nc(Nc3cn(C)cn3)c3cc[nH]c3n2)nc1 (racemic) [Example 27, N^2-[1-(5-Methoxypyrimidin-2-yl)ethyl]-N^4-(1-methyl-1H-imidazol-4-yl)-7H-pyrrolo[2,3-d]pyrimidine-2,4-diamine] | 270
CC(Nc1nc(Nc2cn(C)cn2)c2ccn(CCF)c2n1)c1ncc(F)cn1 (single isomer, unassigned) [Example 22(b), 7-(2-Fluoroethyl)-N^2-[1-(5-fluoropyrimidin-2-yl)ethyl]-N^4-(1-methyl-1H-imidazol-4-yl)-7H-pyrrolo[2,3-d]pyrimidine-2,4-diamine] | 7
CC(Nc1nc(Nc2cn(C)cn2)c2ccn(CCF)c2n1)c1ncc(F)cn1 (single isomer, unassigned) [Example 22(a), 7-(2-Fluoroethyl)-N^2-[1-(5-fluoropyrimidin-2-yl)ethyl]-N^4-(1-methyl-1H-imidazol-4-yl)-7H-pyrrolo[2,3-d]pyrimidine-2,4-diamine] | 2320
COc1cnc(C(C)Nc2nc(Nc3cn(C)cn3)c3cc[nH]c3n2)nc1 (single isomer, unassigned) [Example 27(a), N^2-[1-(5-Methoxypyrimidin-2-yl)ethyl]-N^4-(1-methyl-1H-imidazol-4-yl)-7H-pyrrolo[2,3-d]pyrimidine-2,4-diamine] | 17600
CC(Nc1nc(Nc2cn(C)cn2)c2ccn(C3CC3)c2n1)c1ncc(F)cn1 (single isomer, unassigned) [Example 24(b), 7-Cyclopropyl-N^2-[1-(5-fluoropyrimidin-2-yl)ethyl]-N^4-(1-methyl-1H-imidazol-4-yl)-7H-pyrrolo[2,3-d]pyrimidine-2,4-diamine] | 27
COc1cnc(C(C)Nc2nc(Nc3cn(C)cn3)c3cc[nH]c3n2)nc1 (stereo not shown) [Example 27(b), N^2-[1-(5-Methoxypyrimidin-2-yl)ethyl]-N^4-(1-methyl-1H-imidazol-4-yl)-7H-pyrrole[2,3-d]pyrimidine-2,4-diamine] | 520
CCn1ncc2c(Nc3cn(C)cn3)nc(NC(C)c3ncc(F)cn3)nc21 (single isomer, unassigned) [Example 9(b), 1-Ethyl-N^6-[1-(5-fluoropyrimidin-2-yl)ethyl]-N^4-(1-methyl-1H-imidazol-4-yl)-1H-pyrazolo[3,4-d]pyrimidine-4,6-diamine] | 40
C[C@H](Nc1nc(Nc2cn(C)cn2)c2cc(C(F)(F)F)[nH]c2n1)c1ncc(F)cn1 [Example 19, N^2-[(1S)-1-(5-Fluoropyrimidin-2-yl)ethyl]-N^4-(1-methyl-1H-imidazol-4-yl)-6-(trifluoromethyl)-7H-pyrrolo[2,3-d]pyrimidine-2,4-diamine] | 13

Other lines, results leading:

IC50 [nM] | Compound
13 | Cc1cc2c(Nc3cn(C)cn3)nc(N[C@@H](C)c3ncc(F)cn3)nc2[nH]1 [Example 20, N^2-[(1S)-1-(5-Fluoropyrimidin-2-yl)ethyl]-6-methyl-N^4-(1-methyl-1H-imidazol-4-yl)-7H-pyrrolo[2,3-d]pyrimidine-2,4-diamine]
26 | CC(Nc1nc(Nc2cn(C)cn2)c2ccc(C(F)(F)F)nc2n1)c1ncc(F)cc1F (racemic) [Example 33, N^2-[1-(3,5-Difluoropyridin-2-yl)ethyl]-N^4-(1-methyl-1H-imidazol-4-yl)-7-(trifluoromethyl)pyrido[2,3-d]pyrimidine-2,4-diamine]
80 | CC(Nc1nc(Nc2cn(C)cn2)c2cc(F)cnc2n1)c1ncc(F)cc1F (single isomer, unassigned) [Example 31(a), N^2-[1-(3,5-Difluoropyridin-2-yl)ethyl]-6-fluoro-N^4-(1-methyl-1H-imidazol-4-yl)pyrido[2,3-d]pyrimidine-2,4-diamine]
15000 | CC(Nc1nc(Nc2cn(C)cn2)c2cc(F)cnc2n1)c1ncc(F)cc1F (single isomer, unassigned) [Example 31(b), N^2-[1-(3,5-Difluoropyridin-2-yl)ethyl]-6-fluoro-N^4-(1-methyl-1H-imidazol-4-yl)pyrido[2,3-d]pyrimidine-2,4-diamine]

target: T2, C-terminal His6-tagged, recombinant, human JAK2, amino acids 808-end (Homo sapiens, UniProt O60674); test: JAK2 kinase Alphascreen assay (Method 1); type: biochemical; details: Alphascreen, 150 pM JAK2 enzyme, 5 mM ATP, 80 nM Tyk2 peptide, 60 minutes room temperature; read-out: IC50 Assay (Method 1)
T2 construct: His6 (C); purchased Upstate Biotechnology MA; host or cells: baculovirus in Sf21 cells
T2 sequence (O60674 808-1132 limits assumed): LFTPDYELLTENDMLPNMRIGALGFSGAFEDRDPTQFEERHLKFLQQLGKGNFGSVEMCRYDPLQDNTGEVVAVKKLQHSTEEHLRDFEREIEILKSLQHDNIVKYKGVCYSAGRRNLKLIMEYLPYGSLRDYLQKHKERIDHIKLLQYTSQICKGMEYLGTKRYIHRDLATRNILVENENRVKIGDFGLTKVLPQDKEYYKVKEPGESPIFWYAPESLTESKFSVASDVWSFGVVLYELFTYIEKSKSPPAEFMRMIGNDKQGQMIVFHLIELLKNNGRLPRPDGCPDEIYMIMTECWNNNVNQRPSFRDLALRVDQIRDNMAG
Protocol: To measure JAK2 kinase activity, a commercially available purified enzyme may be used. […] After incubation of the kinase with a biotinylated substrate and adenosine triphosphate (ATP) for 60 minutes at room temperature, the kinase reaction may be stopped by the addition of 30 mM ethylenediaminetetraacetic acid (EDTA). The reaction may be performed in 384 well microtitre plates and the reaction products may be detected with the addition of streptavidin coated Donor Beads and phosphotyrosine-specific antibodies coated Acceptor Beads using the EnVision Multilabel Plate Reader after an overnight incubation at room temperature. “Tween 20” is a registered trademark of ICI Americas, Inc.

Compound | IC50 [nM]
Cc1nc2c(Nc3cn(C)cn3)nc(NC(C)c3ncc(F)cn3)nc2s1 (single isomer, unassigned) [Example 7(a), N^5-[1-(5-Fluoropyrimidin-2-yl)ethyl]-2-methyl-N^7-(1-methyl-1H-imidazol-4-yl)[1,3]thiazolo[5,4-d]pyrimidine-5,7-diamine] | 570
C[C@H](Nc1nc(Nc2cn(C)cn2)c2ccc(NC3CC3)nc2n1)c1ncc(F)cn1 [Example 36, N^7-Cyclopropyl-N^2-[(1S)-1-(5-fluoropyrimidin-2-yl)ethyl]-N^4-(1-methyl-1H-imidazol-4-yl)pyrido[2,3-d]pyrimidine-2,4,7-triamine] | 3
C[C@H](Nc1nc(Nc2cn(C)cn2)c2cn[nH]c2n1)c1ncc(F)cn1 [Example 46, N^6-[(1S)-1-(5-Fluoropyrimidin-2-yl)ethyl]-N^4-(1-methyl-1H-imidazol-4-yl)-1H-pyrazolo[3,4-d]pyrimidine-4,6-diamine] | 21
CC(Nc1nc(Nc2cn(C)cn2)c2cnn(C)c2n1)c1ncc(F)cn1 (single isomer, unassigned) [Example 11(b), N^6-[1-(5-Fluoropyrimidin-2-yl)ethyl]1-methyl-N^4-(1-methyl-1H-imidazol-4-yl)-1H-pyrazolo[3,4-d]pyrimidine-4,6-diamine] | < 3
C[C@H](Nc1nc(Nc2cn(C)cn2)c2ccc(Cl)nc2n1)c1ncc(F)cn1 [Example 42, 7-Chloro-N^2-[(1S)-1-(5-fluoropyrimidin-2-yl)ethyl]-N^4-(1-methyl-1H-imidazol-4-yl)pyrido[2,3-d]pyrimidine-2,4-diamine] | < 3
CC(Nc1nc(Nc2cn(C)cn2)c2nccnc2n1)c1ncc(F)cn1 (single isomer, unassigned) [Example 10(a), N^2-[1-(5-Fluoropyrimidin-2-yl)ethyl]-N^4-(1-methyl-1H-imidazol-4-yl)pteridine-2,4-diamine] | 6400
C[C@H](Nc1ccc2c(Nc3cn(C)cn3)nc(N[C@@H](C)c3ncc(F)cn3)nc2n1)c1ncc(F)cn1 [Example 39, N^2,N^7-bis[(1S)-1-(5-fluoropyrimidin-2-yl)ethyl]-N^4-(1-methyl-1H-imidazol-4-yl)pyrido[2,3-d]pyrimidine-2,4,7-triamine] | 3

Results, then the compound that gave them:

IC50 [nM] | Compound
< 3 | CC(Nc1nc(Nc2cn(C)cn2)c2ccncc2n1)c1ncc(F)cc1F (single isomer, unassigned) [Example 43(a), N^2-[1-(3,5-Difluoropyridin-2-yl)ethyl]-N^4-(1-methyl-1H-imidazol-4-yl)pyrido[3,4-d]pyrimidine-2,4-diamine]
3240 | COCC(Nc1nc(Nc2cn(C)cn2)c2cnn(C)c2n1)c1ncc(F)cc1F (single isomer, unassigned) [Example 13(a)]
< 3 | C[C@H](Nc1nc(Nc2cn(C)cn2)c2cccnc2n1)c1ncc(F)cn1 [Example 16, N^2-[(1S)-1-(5-Fluoropyrimidin-2-yl)ethyl]-N^4-(1-methyl-1H-imidazol-4-yl)pyrido[2,3-d]pyrimidine-2,4-diamine]
< 3 | CC(Nc1nc(Nc2cn(C)cn2)c2ccn(C)c2n1)c1ncc(F)cn1 (single isomer, unassigned) [Example 23(a), N^2-[1-(5-Fluoropyrimidin-2-yl)ethyl]-7-methyl-N^4-(1-methyl-1H-imidazol-4-yl)-7H-pyrrolo[2,3-d]pyrimidine-2,4-diamine]
1180 | CC(Nc1nc(Nc2cn(C)cn2)c2ccncc2n1)c1ncc(F)cc1F (single isomer, unassigned) [Example 43(b), N^2-[1-(3,5-Difluoropyridin-2-yl)ethyl]-N^4-(1-methyl-1H-imidazol-4-yl)pyrido[3,4-d]pyrimidine-2,4-diamine]
28800 | CC(Nc1nc(Nc2cn(C)cn2)c2ccsc2n1)c1ncc(F)cn1 (single isomer, unassigned) [Example 1(a), N^2-[1-(5-Fluoropyrimidin-2-yl)ethyl]-N^4-(1-methyl-1H-imidazol-4-yl)thieno[2,3-d]pyrimidine-2,4-diamine]
470 | CC(Nc1nc(Nc2cn(C)cn2)c2cccnc2n1)c1ncc(F)cc1F (single isomer, unassigned) [Example 12(b), N^2-[1-(3,5-Difluoropyridin-2-yl)ethyl]-N^4-(1-methyl-1H-imidazol-4-yl)pyrido[2,3-d]pyrimidine-2,4-diamine]

same assay, conditions: IC50 Assay (Method 1)

Compound | IC50 [nM]
CC(Nc1nc(Nc2cn(C)cn2)c2cc(F)cnc2n1)c1ncc(F)cn1 (single isomer, unassigned) [Example 38(b), 6-Fluoro-N^2-[1-(5-fluoropyrimidin-2-yl)ethyl]-N^4-(1-methyl-1H-imidazol-4-yl)pyrido[2,3-d]pyrimidine-2,4-diamine] | 490
